# Assay results published in a melting point compilation (Tetko et al.; mined from patent text by program, amines drawn as free bases though some values may be those of a salt).
row,SMILES,melting point [°C]
1,CC(C)c1cccc(C(C)C)c1NC(=O)NCC1(c2ccc(Cl)cc2)CCCC1,189 to 192
2,Cc1ccccc1C(=O)c1nc(Cl)ccc1[N+](=O)[O-],111 to 112
3,CNc1nc2cccc(C(=O)O)c2s1,> 330
4,CC(=NO)C(C)(C)NCC(CNC(C)(C)C(C)=NO)CC(O)CC1([N+](=O)[O-])N=CC=N1 (stereo not drawn),185 to 187
5,Cc1n[nH]c(=O)c(-c2c(F)cccc2Cl)c1-c1ccc(Cl)nc1,166 to 167
6,CN1CCc2cc(Cl)c(O)cc2C1C1(c2ccc(Cl)cc2)CCC1 (stereo not drawn),168 to 171
7,CC(=O)Nc1ccc(Cn2cnc3c(Cl)ncnc32)cc1,240 to 242
8,COC(=O)N1C(=O)c2ccccc2C1=O,184
9,Cc1oc(-c2ccco2)nc1COc1ccc(Cn2cc(CCC(=O)O)c(-c3ccccc3)n2)cc1,152 to 153
10,CN1CCNC1=C(Br)[N+](=O)[O-],97
11,O=c1ccc(-c2ccc(OCC(O)CN3CCCCC3)cc2)n[nH]1 (stereo not drawn),185
12,CC(C)n1c(=O)nc(-c2ccc3c(c2)CCC3)c2cc3c(cc21)OCO3,73 to 75
13,C#Cc1ccnc(-c2cc([N+](=O)[O-])c(-c3ccccc3)cc2N)c1,187 to 190
14,COC(=O)c1ccc(-c2nnc3n2-c2cccnc2Nc2ccccc2-3)cc1,> 300
15,Nc1c(CC(=O)O)cccc1Oc1ccccc1Cl,86 to 90
16,OCCn1ccc2cccnc21,52.7 to 53.3
17,N#Cc1cc(F)c(-n2cnc(C(F)(F)F)cc2=O)cc1F,95
18,O=C(O)Cc1c(C(=O)c2ccc(-c3ccco3)cc2)[nH]c2cc(Cl)ccc12,230 to 232
19,Cc1c(C)c(O)c(CCC(C)(O)COc2ccc(CC3SC(=O)NC3=O)cc2)c(C)c1O (stereo not drawn),84 to 88
20,COc1nc(C)c(N)cc1C,39.8 to 41
21,CC1(C)Oc2ccc(C#N)cc2C(C2=C(C(O)C(N)=O)C=CCC2)=C1O (stereo not drawn),235 to 237
22,CN(CC#N)[C@H](COCc1cc(C(F)(F)F)cc(C(F)(F)F)c1)c1ccccc1,110 to 111
23,Cc1ccc(-c2c(C#N)n(C)c(=O)c3cnccc23)cc1,201 to 202
24,CCn1cc(-c2ccccc2)c(=O)c(-c2ccccc2)c1,171
25,COc1ccc(CCNS(=O)(=O)Cc2ccc3[nH]cc(CC#N)c3c2)cc1,134 to 135

row,SMILES,melting point [°C]
1,CCOC(=O)c1cc(-c2ccccc2)n(-c2ccc(S(N)(=O)=O)cc2)n1,192 to 195
2,Cc1c(OCC(=O)O)ccc2c(=O)c3ccccc3oc12,244 to 247
3,CC(=NOc1ccc(C=O)cc1)c1ccc(C)cc1,96 to 98
4,COc1ccc(-n2nnc(-c3ccc(Cl)cc3Cl)c2N)cc1,155 to 164
5,COc1cc(CO)ccc1OCc1nc(-c2cccc(C#N)c2)oc1C,113 to 115
6,CCC(=S)N(c1c(C)cccc1C)C(C)C(C)=S (stereo not drawn),88 to 92
7,CN1C(=O)COc2c(C(=O)NC3CN4CCC3CC4)cc(O)cc21 (stereo not drawn),250 to 251
8,CCN(CC)C(=O)C=Cc1ccc(C2=C(c3ccc(O)cc3)CCc3cc(O)ccc32)cc1,222
9,COc1cccc(NC(=O)N=C2CCCN2C)c1,123 to 125
10,c1ccc(CSc2cnccn2)cc1,65 to 67
11,C[C@@H](CO)NC(=S)[C@@H](CC(=O)OC(C)(C)C)NC(=O)OC(C)(C)C,70 to 72
12,O=[N+]([O-])c1ccccc1COc1ccc2ncc3c(c2c1)C(O)CCC3 (stereo not drawn),181 to 183
13,CCCCN(C(=O)c1cc(C(C)(C)C)c(OC(=O)c2cc(C(C)(C)C)c(O)c(C(C)(C)C)c2)c(C(C)(C)C)c1)C1CC(C)(C)N(OC(C)=O)C(C)(C)C1,230 to 232
14,Cc1cc(O)n(-c2ccc(N3CCOCC3)nn2)n1,189 to 192
15,Nc1nc(-c2ccccc2)c(-c2ccnc(Nc3cccc(CO)c3)n2)s1,214 to 215
16,COC(=O)CCCCCCCCc1ccc(O)cc1,52 to 54
17,COC(=O)c1ccc(CC(C)NCC(O)c2ccc(O)c(O)c2)cc1 (stereo not drawn),169
18,COc1cccc(C(=O)NC2(C(=O)c3cc(C)cc(C)c3)CC2)c1C,174 to 176
19,CCN(CC)CCN1C(=O)c2cc(Cl)c(S(N)(=O)=O)cc2C1=O,152 to 154
20,O=S(=O)(c1ccc(-n2cccc2)cc1)c1cccc2cnccc12,207 to 210
21,Cc1ccc2sc3cc(CC(=O)O)ccc3c2c1,185 to 187
22,CCN(CC)C1CCCCC1Oc1ccc(Cc2c(-c3ccc(OCCN4CCCC4)cc3)sc3cc(O)ccc23)cc1 (stereo not drawn),95 to 100
23,O=C(Nc1cc(-c2nc3ccccc3[nH]2)ccn1)c1ccccc1,145 to 146
24,O=C(C=Cc1c(Cl)cccc1Cl)c1ccccc1,83
25,CN(CC1=C(C#N)C(c2cccc3nonc23)c2c[nH]nc2N1)C(=O)OC(C)(C)C (stereo not drawn),207

row,SMILES,melting point [°C]
1,COc1ccc(N(CCCCO)S(=O)(=O)c2c(F)c(F)c(F)c(F)c2F)cc1,88 to 90
2,O=C(NCCCO)c1cccc(-c2ccc3c(n2)N(Cc2ccc(Cl)cc2Cl)CC3)c1,145 to 146
3,CC(C)C(=O)Nc1ccc(C(=O)Nc2ccccc2N)cc1,248
4,CC(=O)[NH+]([O-])C[C@@H]1CN(c2ccc(N3CCN(S(=O)(=O)c4ccccc4C#N)CC3)c(F)c2)C(=O)O1 (stereo partly drawn),190 to 192
5,COc1cc(C)c(CCCCCCCCCC(=O)CCCCCC(=O)O)c(O)c1OC,55 to 57
6,CC1(C)CCC(C)(C)c2cc(OCc3ccc(C#N)cc3)ccc21,149 to 150
7,CCOC(=O)c1c(O)c2ccccc2n(Cc2ccc(F)cc2)c1=O,116 to 120
8,Cc1ncoc1C(O)c1ccco1 (stereo not drawn),52 to 54
9,COc1ccc(S(=O)(=O)N(CCC(=O)N2CCC(C(=O)O)CC2)C(CCc2ccccc2)C(=O)NO)cc1 (stereo not drawn),85 to 92
10,CCOCCNS(=O)(=O)NC(=O)OCc1ccc(OCCOC)cc1Oc1ncc(C(F)(F)F)cc1Cl,142 to 143
11,CC(=O)OC1C(CO)OC(c2ccc(Cl)c(Cc3ccc(-c4ccccc4)s3)c2)C(OC(C)=O)C1OC(C)=O (stereo not drawn),166 to 168
12,CCCCC1(CCCC)CS(=O)(=O)c2ccc(N(C)C)cc2[C@@H](c2ccc(OCCCCC(=O)O)cc2)[C@H]1O,76 to 79
13,O=C(O)c1ccc2nc(-c3ccccc3)c(-c3ccccc3)nc2c1,290 to 292
14,FC(F)(F)C(F)(F)Oc1ccc(-c2nnco2)cc1,87 to 89
15,COc1ccc(/C=C/c2cc(/C=C/c3c[nH]c4ccccc34)n[nH]2)cc1OCc1ccccn1,232 to 243
16,CN1Cc2cncn2-c2cccc(Cl)c2C1=O,200 to 201
17,CC(C)(C)CCc1ccc(C(=O)NNS(=O)(=O)c2ccccc2)cc1,168 to 169
18,CCc1noc(-c2ncc3[nH]c4c(c3c2COC)CCCC4)n1,197 to 199
19,CC(C)(C)c1ccc(Nc2ncc(-c3ccnc(Cl)n3)c3ccccc23)cc1,257 to 258
20,CO[C@@H]1CN(c2ccc3c(=O)c(C(=O)O)cn(-c4nccs4)c3n2)C[C@H]1NCC(=O)OC(C)(C)C (relative stereo),185 to 188
21,O=C(Cc1ccc(Cl)cc1)N1CCc2cc(S(=O)(=O)N3CCN(c4cccc(Cl)c4)CC3)ccc21,186 to 187
22,Cc1cc(C(=O)N2Cc3ccc(C(=O)O)n3Cc3ccccc32)ccc1C1=CCCc2ccccc21,150 to 153
23,C#CC1(OC(C)=O)CCC2C3CCC4=CC(=O)CCC4C3C(C(F)F)CC21C (stereo not drawn),157 to 180
24,CCCCc1nc(=O)n2nc(-c3ccco3)cc2[nH]1,190
25,O=C(O)C1(c2ccc3c(c2)CCCC3)CCC1,123 to 126

row,SMILES,melting point [°C]
1,CC1(C)CC(C)(C)CC(CCCc2ccccc2)(NC(=O)CCl)C1,83 to 85
2,O=c1[nH]c2cc(Cl)ccc2c(O)c1-c1ccccc1[N+](=O)[O-],298 to 300
3,CCOc1c(C)c(N2CCN(c3ccc(OC)cc3)CC2)c(C)c2c1OC(C)C2 (stereo not drawn),106 to 108
4,COc1cc2c(cc1C)C1(CO2)C(=O)N(CC2CCCO2)c2ccccc21 (stereo not drawn),151 to 153
5,CC(C)S(=O)(=O)c1ccc2[nH]nc(Nc3nccs3)c2c1,146 to 148
6,O=C(OC1c2ccccc2C(=O)N1c1ccc2ccc(Cl)nc2n1)N1CCN(C(=O)C(F)(F)F)CC1 (stereo not drawn),218
7,O=C(O)c1cc2ccc(OCCNC[C@H](O)COc3ccccc3)cc2o1,214 to 217
8,C#CCOc1cc(C(N)=O)cc(Cl)c1OCC#C,122 to 125
9,CC(C)(C)OC(=O)N1CC(CCl)c2c1cc(N)c1ccccc21 (stereo not drawn),> 200
10,Nc1nc(/C(=N/OC2(C(=O)OCc3ccc([N+](=O)[O-])cc3)CCCCC2)C(=O)O)cs1,184 to 185
11,O=C(O)[C@H](Cc1ccccc1)NC(=O)[C@@H]1CCCN1C(=O)c1ccccc1,200 to 202
12,COc1cccc(NC(=O)Nc2ccc(N3CCN(C(=O)Nc4ccc(OCCO)cc4Cl)CC3)cc2)c1,198 to 201
13,Cn1ccc2cc(Nc3ccncc3)ccc21,202 to 203
14,CCOC(Cc1ccc(OCc2nc(C(C)(C)C)oc2C)c2ccccc12)C(=O)O (stereo not drawn),185 to 186
15,O=C(O)Cc1cccc(OCCCc2cc(-c3ccc(C(F)(F)F)cc3)no2)c1,126 to 127
16,O=C(O)c1ccc2cn(C3CCCC3)nc2c1,190 to 193
17,O=C(O)CCCCc1c[nH]c2ccccc12,80 to 83
18,COc1ccc(O)c(C2(CO)C(=O)N(CO)c3cccc(Br)c32)n1 (stereo not drawn),142 to 145
19,CC(=O)NCc1ccc2ccn(C3CCN(CCc4ccc(F)cc4)CC3)c2c1,127 to 128
20,OC1(c2ccc(Cl)c(Cl)c2)c2ccccc2C2=NCCCN21 (stereo not drawn),267 to 269
21,O=C(O)c1ccc(COCc2csc3nc(C(=O)NCc4ccc(F)c(Br)c4)[nH]c(=O)c23)cc1,231 to 233
22,CCC1(CC)c2cc(-c3cc4ccccc4[nH]3)ccc2-c2ccc(N(c3ccccc3)c3ccccc3)cc21,102 to 104
23,O=c1[nH]c(=O)c2c(N3CCCCC3)cccc2[nH]1,> 280
